Reference: PMC8401167, “Point Mutations and Cytochrome P450 Can Contribute to Resistance to ACCase-Inhibiting Herbicides in Three Phalaris Species” (Plants, 2021)
Where two headings read alike, the source gives them in different places.

Tests used:
Assay in all cases: […]bicarbonate incorporation into malonyl-CoA
Format in all cases: biochemical
ACCase (Phalaris minor) = target: T1, ACCase (Phalaris minor); conditions: 1.5 mM ATP, 5 mM acetyl-CoA, 5 mM MgCl2, 15 mM NaH14CO3, pH 8.3, 34 °C, S biotype, read-out: I50
T1 construct: cytosolic form not separated

[1] = target: T2, ACCase (Phalaris brachystachys); conditions: 1.5 mM ATP, 5 mM acetyl-CoA, 5 mM MgCl2, 15 mM NaH14CO3, pH 8.3, 34 °C, S biotype, read-out: I50
T2 construct: cytosolic form not separated

[2] = target: T3, ACCase (Phalaris paradoxa); conditions: 1.5 mM ATP, 5 mM acetyl-CoA, 5 mM MgCl2, 15 mM NaH14CO3, pH 8.3, 34 °C, S biotype, read-out: I50
T3 construct: cytosolic form not separated

[3] = target: T2, ACCase (Phalaris brachystachys); conditions: 1.5 mM ATP, 5 mM acetyl-CoA, 5 mM MgCl2, 15 mM NaH14CO3, pH 8.3, 34 °C, R biotype (zygosity not given), stated gain, read-out: I50
[4] = table labels herbicide diclofop-methyl, methods say DM acid

| SMILES | IC50 (ACCase (Phalaris minor); [4]) [nM] | IC50 [1, 4] [nM] | IC50 [2, 4] [nM] | IC50 [3, 4] [nM] | IC50 (ACCase (Phalaris minor)) [nM] | IC50 [1] [nM] | IC50 [2] [nM] | IC50 [3] [nM] |
| --- | --- | --- | --- | --- | --- | --- | --- | --- |
| CC(Oc1ccc(Oc2ccc(Cl)cc2Cl)cc1)C(=O)O (stereo not drawn) [DM acid] | 850 ± 30 | 320 ± 50 | 590 ± 230 | 6650 ± 780 | – | – | – | – |
| CCCC(=NOCC)C1=C(O)CC(C2CCCSC2)CC1=O (stereo not drawn) [cycloxydim] | – | – | – | – | 670 ± 910 | 220 ± 20 | 460 ± 60 | 2400 ± 340 |
| CCc1cc(C)cc(CC)c1-c1c(OC(=O)C(C)(C)C)n2n(c1=O)CCOCC2 [pinoxaden] | – | – | – | – | 590 ± 70 | 780 ± 10 | 660 ± 90 | 14400 ± 1900 |
